Settings: acidic group

Point of comparison: `O=Cc1ccc(O)cc1Cl`, pKa 6.6. Against it:
- S=c1[nH]c(SCc2ccccc2)c(-c2ccccc2)[nH]1 — higher, 9.55
- CC1(C)SC(=S)NC1=O — lower, 5.38
- CCOc1ccc(C)c(C(=O)O)c1 — lower, 3.86
- O=S(=O)(Nc1nccs1)c1ccc(O)cc1 — lower, 6
- Oc1ccc(Cl)cc1C[NH+]1CCCCC1 — higher, 8.14
- CCC1(c2ccccc2)C(=O)NC(=S)NC1=O — lower, 6.3
- O=S1(=O)Cc2cc(Br)ccc2N=CN1 — higher, 9.3
- [O-]c1cccc2c1-c1c(O)cccc1-2 — higher, 11
- COC(=O)c1ccc(NC=S)cc1 — higher, 10.9
- Cc1nnnn1CC(=O)O — lower, 2.16
- Cc1cccc(C(=O)[O-])c1O — higher, 14.4
- CC(C)(C)C(=O)NO — higher, 9.59
- O=C(O)C1(O)CCCCC1 — lower, 4.18
- O=S(=O)([O-])c1ccc(O)c2[nH]ncc12 — higher, 7.6
- [NH3+]CCCCCCC(=O)O — lower, 4.44
- Nc1nc2[nH]cnc2c(O)[nH+]1 — lower, 3
- O=C(Cc1ccccc1)c1cc[n+](Cc2ccc([N+](=O)[O-])cc2)cc1 — higher, 8.68
- [NH3+]CCC(=O)NC(Cc1c[nH]c[nH+]1)C(=O)O (stereo unspecified) — lower, 2.96
- Cc1cccc(CN(C)C)c1O — higher, 11.1
- O=C(O)[C@H]1[C@@H]2C=C[C@H]1CC2 — lower, 4.58
- Cc1cccc(O)c1C(=O)Oc1ccccc1 — higher, 8.63
- OCCS — higher, 9.47
- O=C(O)CNC(=O)c1ccccc1O — lower, 3.63
- O=S(Cc1ccccc1)c1ncc[nH]1 (stereo unspecified) — higher, 9.8
- Cc1[nH]c2ccccc2c1C(=O)O — lower, 5.89
- [NH3+]CC(=O)N1CCC[C@H]1C(=O)O — lower, 2.95
- CCCCCCCCCCc1c(-c2ccccc2)n[nH]c1O — higher, 11
- CC(C)[C@H]([NH3+])C(=O)O — lower, 2.32
- Cc1ccc(O)cc1[S+](C)C — higher, 8.01
- CN1C(=O)C(C)(C)NC1=S — higher, 10.8
- CC(=O)NC(Cc1c[nH]c[nH+]1)C(=O)O (stereo unspecified) — lower, 2.94
- C[NH+](C)CC(P(=O)([O-])O)P(=O)([O-])O — lower, 5.75
- CCCCO — higher, 15.6
- CC1(C)CC=CC(=O)C1 — higher, 12.4
- S=c1[nH]c2cc3c(cc2[nH]1)CCCC3 — higher, 10.4
- [O-]c1ncc2[nH]cnc2n1 — higher, 11.9
- CN(C)c1nc2ncncc2[nH]1 — higher, 9.73
- O=C(O)c1csc(Br)c1 — lower, 3.7
- CC(=O)OCC(=N/O)/C(C)=N/O — higher, 9.7
- O=C(O)C1CCC[NH2+]1 (stereo unspecified) — lower, 1.99
- N#CC(C#N)=C(N)C(C#N)C#N — lower, 2.58
- C[N+](C)(C)Cc1cccc(O)c1O — higher, 8.1
- OCc1ccccc1O — higher, 9.92
- OC(c1ccncc1)(c1ccccn1)c1ccccn1 — higher, 13.1
- Cc1nc(-c2ccccc2)oc1O — higher, 8.94
- Oc1ccc2nccnc2c1 — higher, 7.92
- Oc1cc(-c2ccccc2)no1 — lower, 4.01
- O=c1nc([O-])c2ncn([C@H]3O[C@@H](CO)[C@H](O)[C@@H]3O)c2[nH]1 — higher, 13
- CCN(CC)Cc1ccccc1O — higher, 10.8
- CC(=O)c1ccc(Cl)cc1 — higher, 18.1
- Cc1csc(S(N)(=O)=O)n1 — higher, 8.35
- [NH3+]CC[SeH] — lower, 5
- Oc1cnc2ccccc2[nH+]1 — lower, -1.37
- O=C(O)c1csc2ccccc12 — lower, 4.24
- O=N/C(Cc1ccccc1)=N\O — lower, 5.3
- N#CC(c1ccccc1)c1ccc([N+](=O)[O-])cc1 (stereo unspecified) — higher, 10.9
- O=[N+]([O-])c1ccccc1/C=N\O — higher, 10.7
- Cc1c(C(=O)O)[nH]c2ccccc12 — lower, 4.33
- O=C(O)Cc1ccoc1 — lower, 4.07
- Cc1ccc(C(=O)O)cc1O — lower, 4.32
- CC(C)=NNS(C)(=O)=O — higher, 8.5
- Cc1c(Cn2cc[nH+]c2)n(C)c2ccc(C(=O)O)cc12 — lower, 4.08
- CCP(=O)(CC)CC(C)=O — higher, 11.9
- c1ccc(CSc2ncn[nH]2)cc1 — higher, 9.5
- Nc1c2ccccc2[nH+]c2c(O)cccc12 — higher, 7.05
- O=C(O)[C@@H](O)Cc1c[nH]c[nH+]1 — lower, 2.99
- CC(=O)c1ccc(Br)cc1 — higher, 18
- Nc1ccc(S(=O)(=O)Nc2cccc[n+]2[O-])cc1 — lower, 5.2
- O=C(O)[C@H]1C[C@@H]1c1ccc(Cl)cc1 — lower, 4.53
- Cc1ccccc1C(=S)Nc1ccccc1 — higher, 10.9
- CCCCN[N+](=O)[O-] — within 0.2 log units, 6.48
- C#CCO — higher, 13.3
- Nc1nnnn1CC(=O)O — lower, 2.38
- COC(=O)CC(=O)c1ccncc1 — higher, 8.24
- C[NH+](C)Cc1cccc(O)c1 — higher, 8.88
- O=C(O)C1CC[NH2+]C1 (stereo unspecified) — lower, 3.38

Same assay, conditions: basic group

Point of comparison: `CCC(C)N(C)c1ccccc1` (stereo unspecified), pKa 6.03. Against it:
- S=c1[nH]c(SCc2ccccc2)c(-c2ccccc2)[nH]1 — lower, -3.31
- [O-]c1[nH+]cncc1O — lower, 1.99
- C=C(C)C(N)O (stereo unspecified) — higher, 8
- NC(Cc1n[nH]c2ccccc12)C(=O)[O-] (stereo unspecified) — higher, 8.95
- C[C@H](N)C(=O)[O-] — higher, 9.72
- CCN(CC)CC(=O)NC1CCc2ccccc21 (stereo unspecified) — higher, 8.19
- OCCc1cccnc1 — lower, 5.38
- CNc1cnccc1N — higher, 9.14
- CN1[C@H]2CC=C(C(=O)[O-])[C@@H]1CC2 — higher, 10.8
- OCc1cc(-c2ccccc2)nnc1NCC[NH+]1CCOCC1 — lower, 3.81
- COc1cccc(C2NCCS2)c1 (stereo unspecified) — lower, 5.12
- CNNC1CC[NH+](C)CC1 — within 0.2 log units, 5.95
- CCCCNCc1ccc(C)cc1 — higher, 9.98
- CC(Cc1ccccc1)N(C)CCC#N (stereo unspecified) — higher, 6.95
- CN(C)CCC(C#N)(c1ccccc1)c1ccccc1 — higher, 8.31
- N[C@@H]1C[C@H]2CCCC[C@@H]2C[C@@H]1[NH3+] — higher, 6.36
- CCN(CC)CCBr — higher, 7
- [O-]c1cnnc2ccccc12 — higher, 9.27
- Cc1c[n+](C)c([O-])nc1N — lower, 4.76
- NCCc1ccc(Cl)cc1 — higher, 9.66
- Cc1cccc(CN(C)C)c1O — higher, 8.18
- CCN(CC)Cc1cc(Cl)cc(Cl)c1[O-] — higher, 11.6
- Cc1cc(C)c(C)nn1 — lower, 4.81
- C[C@H]1O[C@H](O[C@H]2CC[C@H](n3ccc(N)nc3=O)O[C@@H]2C)[C@H](O)[C@@H](O)[C@@H]1N(C)C — higher, 7
- CCNCC(=O)Nc1c(C)cccc1C — higher, 8.06
- CN(C)CCN(C)CC[NH+](C)C — higher, 8.63
- CCNCCNCC — higher, 10.5
- C[C@H]1[C@@H](N)[C@@H](C)[C@@H]([NH3+])[C@@H](C)[C@H]1N — higher, 6.73
- Brc1ccc2nc3c(c(N4CCOCC4)c2c1)CCC3 — higher, 6.38
- Cc1ccc(NC(=O)CN2CCCCC2)cc1 — higher, 7.85
- CC(C)n1c(N)nc2ccc(/C(=C\C(N)=O)c3cccc(F)c3F)cc21 — higher, 6.7
- NCCCCCCCCC(=O)[O-] — higher, 11
- CCOc1c(C#N)cnc2ccccc12 — lower, 3.18
- CCCCCNCCCCC — higher, 11.2
- NCCCCCN — higher, 10.8
- CCCNCC(=O)Nc1c(C)cccc1C — higher, 8.01
- [O-]c1ncc2[nH]cnc2n1 — higher, 8.43
- CN(C)c1nc2c(s1)CCCC2 — within 0.2 log units, 6.16
- CN(C)c1nc2ncncc2[nH]1 — lower, 4.8
- FC(F)(F)c1cc(-c2ccccc2)nnc1NCCN1CCOCC1 — higher, 6.75
- Cc1cc(-c2cc(C)n(C)[nH+]2)nn1C — lower, -0.6
- Nc1nc(N(CCO)CCO)nc(N(CCO)CCO)n1 — lower, 5.15
- Cn1cnc2c([O-])nc(N)nc21 — higher, 9.92
- NNC(=O)c1ccccc1[NH3+] — lower, 1.85
- NC(=O)/C=C(\O)c1cccnc1 — higher, 8.01
- CN(C)C1CC(C)(C)NC(C)(C)C1 — higher, 10.6
- Cc1cc([O-])nc([O-])[n+]1C — higher, 10.1
- CC1CN(C)CC[NH+]1C (stereo unspecified) — lower, 3.93
- Oc1onc2c1CCN(Cc1ccccc1)CC2 — higher, 8
- CCN(CC)CC(=O)[O-] — higher, 10.5
- CC(CN(C)C)N(C)C (stereo unspecified) — higher, 9.49
- CCC(=O)C(CC(C)N1CCOCC1)(c1ccccc1)c1ccccc1 (stereo unspecified) — higher, 6.89
- Oc1ccc2nccnc2c1 — lower, 1.4
- O=C([O-])c1ccc2sc(Cn3ccnc3)cc2c1 — higher, 6.34
- [SH2+]c1cccc2ncccc12 — lower, 3.31
- Cc1cnnc(C)c1 — lower, 4.11
- Cc1nc(NCc2ccco2)c2cn[nH]c2n1 — lower, 4.65
- NCc1ccc(C(=O)[O-])cc1 — higher, 9.64
- NCC/C=C/C(=O)[O-] — higher, 9.95
- NC(=O)c1cncc2ccccc12 — lower, 3.8
- Nc1nc[nH+]c(N)c1N — lower, 1.47
- CCN(CC)Cc1ccccc1O — higher, 8.81
- Nc1cccc2[nH+]cccc12 — lower, 0.97
- OCCc1ccccn1 — lower, 5.37
- Nc1ccc2[nH]c(Cc3ccccc3)[nH+]c2c1 — lower, 3.3
- CC(C)N(CCc1ccccc1)CCc1ccccc1 — higher, 10
- Nc1ccc2c(c1)Cc1c(O)cccc1-2 — lower, 4.63
- C1CCN(CC[NH+]2CCCCC2)CC1 — within 0.2 log units, 6.12
- C[NH+](C)CCN1C=Nc2cccc3cccc1c23 — lower, 4.64
- [O-]c1ccnc[nH+]1 — lower, 1.77
- CSc1cc(C)ncn1 — lower, 3.25
- NCCC(=O)Oc1ccc([N+](=O)[O-])cc1 — higher, 9.17
- CC(N)CC#N (stereo unspecified) — higher, 7.85
- C#CCCCCCN — higher, 10.6
- NCC(=O)C[NH3+] — higher, 6.89
- Nc1nnc(-c2ccccc2)s1 — lower, 2.9
- CC1=[NH+]c2ccccc2/C1=C/C=C1\Cc2ccccc2N1C — lower, 1.22
- COc1ccccn1 — lower, 3.34
- Nc1ccnc(-c2cc(Cl)ccn2)c1 — higher, 7.4
- C[n+]1ccccc1-c1ccccn1 — lower, 0.31
- C=CC(=O)NCCCN(C)C — higher, 9.23
- c1ccc(CNc2nc[nH+]c3[nH]cnc23)cc1 — lower, -1
- c1nc(Cc2c[nH]c(Cc3nc(Cc4cnc[nH]4)c[nH]3)[nH+]2)c[nH]1 — higher, 6.66
- Nc1cnc2ccccc2n1 — lower, 3.93
- Nc1ccnc(-c2ccccn2)c1 — higher, 8.1
- C=C[C@]1(O)C[C@@H](C)N[C@H]2CCCC[C@@H]21 — higher, 9.51
- CCN(CC)CCNc1nc(C)nc(Nc2ccc(Cl)cc2)n1 — higher, 9.3
- Fc1cc2nc[nH]c2cc1Cl — lower, 4.33
- Cc1ccccc1N(C)C — within 0.2 log units, 6
- N#CCc1cccnc1 — lower, 3.78
- Cc1cc(C)nc(N)c1 — higher, 7.84
- C[C@@H](C=C(c1ccccc1)c1ccccc1)N(C)C — higher, 9.26
- CCc1cnc2c(ccc3cccnc32)c1 — lower, 4.98
- O=[N+]([O-])c1cccc(C2NCCS2)c1 (stereo unspecified) — lower, 4.63
- N[C@H]1CC(=O)N(CCCC[C@H]([NH3+])C(=O)[O-])C1=O — within 0.2 log units, 6
- C1=CN2CCC1CC2 — higher, 9.82
- C[C@@H](N)C(=O)N1CCC[C@H]1C(=O)[O-] — higher, 8.38
- CC(=O)N(C)c1cccnc1 — lower, 3.52

Reference: the pKa sets of Baltruschat and Czodrowski (2020)
